These results are taken from article PMC9015904 (ChemMedChem, 2022).

The target of series [1] is T1, hKOR (Homo sapiens, UniProt P41145). Nature of the series: biochemical. The series is classed as biochemical.
The target of series [2] is T2, hMOR (Homo sapiens, UniProt P35372). In words: GTPγS functional assay, MOR. The series is classed as biochemical.
The target of series [3] is T2, hMOR. Nature of the series: biochemical. The series is classed as binding.
The target of series [4] is T1, hKOR. Nature of the series: biochemical. The series is classed as binding.
In series [5] the target is T3, hDOR (Homo sapiens, UniProt P41143). In words: Competitive radioligand binding assay, DOR.
The test system of series [6] is male C57BL/6NHsd mice. The note with it: mouse, in vivo.
Series [7] concerns male C57BL/6NHsd mice. Conditions: mouse, in vivo. The source holds these as a separate data set.
Series [8] concerns male C57BL/6NHsd mice. Conditions: mouse, in vivo. The source holds these as a separate data set.
Series [9] has as its target T3, hDOR. Nature of the series: GTPγS functional assay, DOR. The series is classed as biochemical.

SMILES strings stand for the structures. Marks after values point to notes of the source that are not given here.

T1 sequence (P41145 whole entry): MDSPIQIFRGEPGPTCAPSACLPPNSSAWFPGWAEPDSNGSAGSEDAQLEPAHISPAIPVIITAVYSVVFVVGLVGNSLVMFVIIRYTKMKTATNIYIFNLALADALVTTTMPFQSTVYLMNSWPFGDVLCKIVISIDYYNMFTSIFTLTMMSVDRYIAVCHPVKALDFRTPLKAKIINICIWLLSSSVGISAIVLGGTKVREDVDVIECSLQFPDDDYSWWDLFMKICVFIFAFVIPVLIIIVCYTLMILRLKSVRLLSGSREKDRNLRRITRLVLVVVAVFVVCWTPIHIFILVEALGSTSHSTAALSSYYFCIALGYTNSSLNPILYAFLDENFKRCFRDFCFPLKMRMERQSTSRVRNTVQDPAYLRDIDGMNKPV
T3 sequence (P41143 whole entry): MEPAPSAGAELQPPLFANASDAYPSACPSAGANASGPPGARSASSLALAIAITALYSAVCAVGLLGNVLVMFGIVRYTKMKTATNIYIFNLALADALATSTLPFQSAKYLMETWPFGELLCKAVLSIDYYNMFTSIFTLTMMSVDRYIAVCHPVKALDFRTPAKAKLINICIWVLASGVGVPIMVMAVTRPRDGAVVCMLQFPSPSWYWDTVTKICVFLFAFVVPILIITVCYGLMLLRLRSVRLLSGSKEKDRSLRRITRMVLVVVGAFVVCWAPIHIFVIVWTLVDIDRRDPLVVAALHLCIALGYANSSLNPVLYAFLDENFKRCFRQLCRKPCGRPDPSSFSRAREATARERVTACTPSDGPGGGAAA
T2 sequence (P35372 whole entry): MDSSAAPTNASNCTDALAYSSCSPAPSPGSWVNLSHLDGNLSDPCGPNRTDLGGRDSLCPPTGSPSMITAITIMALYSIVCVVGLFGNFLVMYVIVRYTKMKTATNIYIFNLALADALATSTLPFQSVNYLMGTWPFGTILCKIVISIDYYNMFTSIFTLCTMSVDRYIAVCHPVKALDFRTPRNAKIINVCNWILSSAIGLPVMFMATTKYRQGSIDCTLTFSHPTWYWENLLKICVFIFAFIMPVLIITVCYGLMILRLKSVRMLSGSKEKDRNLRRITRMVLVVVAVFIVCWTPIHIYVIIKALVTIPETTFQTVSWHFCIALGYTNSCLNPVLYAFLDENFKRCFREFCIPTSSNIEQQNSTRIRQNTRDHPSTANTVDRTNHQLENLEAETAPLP

On to `COC(=O)[C@@H]1C[C@H](OC(=O)C2=CCc3ccccc32)C(=O)[C@H]2[C@@]1(C)CC[C@H]1C(=O)O[C@H](c3ccoc3)C[C@]21C` [Compound 1, Methyl-(2S,4aR,6aR,7R,9S,10aS,10bR)-9-((1H-indene-3-carbonyl)oxy)-2-(furan-3-yl)-6a,10b-dimethyl-4,10-dioxododecahydro-2H-benzo[f]isochromene-7-carboxylate], for which the results for the concentration for a half-maximal effect (EC50) on hKOR [1] and on hMOR [2] were 1570 nM and more than 10000 nM, respectively. For the same compound, the “Full or partial agonist (KOR)” value on hKOR [1] was 1570 (548–4500)^[c]. In addition, the equilibrium dissociation constant (Kd) (as a rule, the free concentration of one partner at which half of the binding sites on the other are occupied at equilibrium, for simple one-to-one binding) worked out at 531 nM on hMOR [3] and 62.3 nM on hKOR [4].
As for `COC(=O)[C@@H]1C[C@H](OC(=O)C2Cc3ccccc3C2)C(=O)[C@H]2[C@@]1(C)CC[C@H]1C(=O)O[C@H](c3ccoc3)C[C@]21C` [Compound 3, Methyl-(2S,4aR,6aR,7R,9S,10aS,10bR)-9-((2,3-dihydro-1H-indene-2-carbonyl)oxy)-2-(furan-3-yl)-6a,10b-dimethyl-4,10-dioxododecahydro-2H-benzo[f]isochromene-7-carboxylate], the EC50 – broadly, the midpoint of the concentration-response curve – is 3000 nM on hKOR [1] and more than 10000 nM on hMOR [2]. Further, the “Full or partial agonist (KOR)” value at hKOR [1] is 3000 (409–22000)^[d]. Further, the values for the Kd at hMOR [3] and on hKOR [4] were 3020 nM and 1270 nM, respectively.
`COC(=O)[C@@H]1C[C@H](OC(=O)c2nc3ccccc3o2)C(=O)[C@H]2[C@@]1(C)CC[C@H]1C(=O)O[C@H](c3ccoc3)C[C@]21C` [Compound 4, (2S,4aR,6aR,7R,9S,10aS,10bR)-2-(furan-3-yl)-7-(methoxycarbonyl)-6a,10b-dimethyl-4,10-dioxododecahydro-2H-benzo[f]isochromen-9-yl benzo[d]oxazole-2-carboxylate]: the “binding affinity towards DOR, in words” value on hDOR [5] is on record as “exhibited no affinity to any of the opioid receptors”. Further, the “binding affinity towards MOR, in words” value on hMOR [3] is “exhibited no affinity to any of the opioid receptors”. In addition, the “binding affinity towards KOR, in words” value at hKOR [4] is on record as “exhibited no affinity to any of the opioid receptors”.
As to `COC(=O)[C@@H]1C[C@H](OC(=O)c2n[nH]c3ccccc23)C(=O)[C@H]2[C@@]1(C)CC[C@H]1C(=O)O[C@H](c3ccoc3)C[C@]21C` [Compound 5, (2S,4aR,6aR,7R,9S,10aS,10bR)-2-(furan-3-yl)-7-(methoxycarbonyl)-6a,10b-dimethyl-4,10-dioxododecahydro-2H-benzo[f]isochromen-9-yl 1H-indazole-3-carboxylate], the concentration giving a half-maximal response (EC50) on hMOR [2] is more than 10000 nM. Besides, the dissociation constant (Kd) at hMOR [3] came to 208 nM.
Consider `COC(=O)[C@@H]1C[C@H](OC(=O)c2nc3ccccc3[nH]2)C(=O)[C@H]2[C@@]1(C)CC[C@H]1C(=O)O[C@H](c3ccoc3)C[C@]21C` [Compound 6, (2S,4aR,6aR,7R,9S,10aS,10bR)-2-(furan-3-yl)-7-(methoxycarbonyl)-6a,10b-dimethyl-4,10-dioxododecahydro-2H-benzo[f]isochromen-9-yl 1H-benzo[d]imidazole-2-carboxylate], for which, on hMOR [2], the EC50 was more than 10000 nM. In addition, at hMOR [3], binding was put at a Kd of 83.2 nM and the “binding affinity towards MOR, in words” value is listed as “exhibited selective affinity towards MOR”.
In the case of `COC(=O)[C@@H]1C[C@H](OC(=O)c2cc3c(F)cccc3[nH]2)C(=O)[C@H]2[C@@]1(C)CC[C@H]1C(=O)O[C@H](c3ccoc3)C[C@]21C` [Compound 7, (2S,4aR,6aR,7R,9S,10aS,10bR)-2-(furan-3-yl)-7-(methoxycarbonyl)-6a,10b-dimethyl-4,10-dioxododecahydro-2H-benzo[f]isochromen-9-yl 4-fluoro-1H-indole-2-carboxylate], the EC50 at hKOR [1] was determined as 877 nM; on hMOR [2], 211 nM. Moreover, on hKOR [1], the “Full or partial agonist (KOR)” value was 877 (564–1360)^[d]. Further, the equilibrium dissociation constant (Kd) came out at 13.1 nM at hMOR [3] and 57.3 nM at hKOR [4].
As to `COC(=O)[C@@H]1C[C@H](OC(=O)c2cc3cc(F)ccc3[nH]2)C(=O)[C@H]2[C@@]1(C)CC[C@H]1C(=O)O[C@H](c3ccoc3)C[C@]21C` [Compound 8, (2S,4aR,6aR,7R,9S,10aS,10bR)-2-(furan-3-yl)-7-(methoxycarbonyl)-6a,10b-dimethyl-4,10-dioxododecahydro-2H-benzo[f]isochromen-9-yl 5-fluoro-1H-indole-2-carboxylate], on hKOR [1], the half-maximal effective concentration (EC50) is 1110 nM and the “Full or partial agonist (KOR)” value was 1110 (441–2790)^[c]. Further, the “binding affinity towards MOR, in words” value at hMOR [3] is “loss of binding affinity to MOR”. The compound further displayed a Kd on hKOR [4] of 97.8 nM.
For `COC(=O)[C@@H]1C[C@H](OC(=O)c2cc3ccc(F)cc3[nH]2)C(=O)[C@H]2[C@@]1(C)CC[C@H]1C(=O)O[C@H](c3ccoc3)C[C@]21C` [Compound 9, (2S,4aR,6aR,7R,9S,10aS,10bR)-2-(furan-3-yl)-7-(methoxycarbonyl)-6a,10b-dimethyl-4,10-dioxododecahydro-2H-benzo[f]isochromen-9-yl 6-fluoro-1H-indole-2-carboxylate], the EC50 at hKOR [1] came out at 419 nM; at hMOR [2] it was 973 nM. Moreover, the “Full or partial agonist (KOR)” value at hKOR [1] was 419 (240–729)^[c]. Besides, the results for the Kd at hMOR [3] and at hKOR [4] were 39.7 nM and 17 nM, respectively.
Regarding `COC(=O)[C@@H]1C[C@H](OC(=O)c2cc3cccc(F)c3[nH]2)C(=O)[C@H]2[C@@]1(C)CC[C@H]1C(=O)O[C@H](c3ccoc3)C[C@]21C` [Compound 10, (2S,4aR,6aR,7R,9S,10aS,10bR)-2-(furan-3-yl)-7-(methoxycarbonyl)-6a,10b-dimethyl-4,10-dioxododecahydro-2H-benzo[f]isochromen-9-yl 7-fluoro-1H-indole-2-carboxylate], in the series on male C57BL/6NHsd mice [6], the “latency to tail withdrawal compared to vehicle” value is “Neither salvinorin A, herkinorin, nor compounds 2 or 10 demonstrated significant antinociception”. Further, at hKOR [1], the concentration giving a half-maximal response (EC50) stood at 36.5 nM, the “Full or partial agonist (KOR)” value was 36.5 (13.6–98.2)^[d] and the “fold higher potency at KOR (vs MOR)” value is reported as ~ 4 fold. This compound yielded an EC50 at hMOR [2] of 132 nM. In addition, the “latency to hind paw lick or flutter compared to vehicle” value in the series with male C57BL/6NHsd mice [7] was “Neither salivinorin A, herkinorin, nor compound 10 were observed to significantly influence the latency to paw response”. The Kd on hMOR [3] amounted to 58.4 nM. For the same compound, in the series with male C57BL/6NHsd mice [8], the “distance traveled in the maze compared to vehicle” value is “reduction in the total distance traveled” and the “time spent in the open arms compared to vehicle” value is “Neither herkinorin nor compound 10 significantly influenced anxiety-like behavior”. On hKOR [4], the Kd is 53.8 nM; the “fold preference towards KOR (binding affinity, KOR vs MOR)” value was “equal binding affinity towards KOR and MOR”.
On to `COC(=O)[C@@H]1C[C@H](OC(=O)c2nc3ccccc3s2)C(=O)[C@H]2[C@@]1(C)CC[C@H]1C(=O)O[C@H](c3ccoc3)C[C@]21C` [Compound 11, (2S,4aR,6aR,7R,9S,10aS,10bR)-2-(furan-3-yl)-7-(methoxycarbonyl)-6a,10b-dimethyl-4,10-dioxododecahydro-2H-benzo[f]isochromen-9-yl benzo[d]thiazole-2-carboxylate], for which, at hKOR [1], the midpoint of the response, the EC50, lay at 294 nM and the “Full or partial agonist (KOR)” value is 294 (179–482)^[d]. For the same compound, on hKOR [4], the Kd was 91.7 nM and the “binding affinity towards KOR, in words” value is recorded as “exhibited selective affinity towards KOR”.
`COC(=O)[C@@H]1C[C@H](OC(=O)c2cc3ccccn3c2)C(=O)[C@H]2[C@@]1(C)CC[C@H]1C(=O)O[C@H](c3ccoc3)C[C@]21C` [Compound 12, (2S,4aR,6aR,7R,9S,10aS,10bR)-2-(furan-3-yl)-7-(methoxycarbonyl)-6a,10b-dimethyl-4,10-dioxododecahydro-2H-benzo[f]isochromen-9-yl indolizine-2-carboxylate]: the EC50 on hDOR [9] stood at 742 nM; at hKOR [1], 1560 nM; at hMOR [2], 200 nM. At hKOR [1], the “Full or partial agonist (KOR)” value is 1560 (213–11500)^[c]. For the same compound, the dissociation constant Kd on hDOR [5] stood at 480 nM; on hMOR [3], 1390 nM; on hKOR [4] it was 18.4 nM.
Turning to `COC(=O)[C@@H]1C[C@H](OC(=O)[C@H]2Cc3ccccc3N2)C(=O)[C@H]2[C@@]1(C)CC[C@H]1C(=O)O[C@H](c3ccoc3)C[C@]21C` [Compound 13, (2S,4aR,6aR,7R,9S,10aS,10bR)-2-(furan-3-yl)-7-(methoxycarbonyl)-6a,10b-dimethyl-4,10-dioxododecahydro-2H-benzo[f]isochromen-9-yl (R)-indoline-2-carboxylate], on hKOR [1], the EC50 is 2260 nM and the “Full or partial agonist (KOR)” value was 2260 (1360–3760)^[c]. On hMOR [2], the EC50 worked out at 840 nM. At hMOR [3], the Kd was 9.04 nM and the “fold preference towards MOR (binding affinity, MOR vs KOR)” value is given as 14 fold. In addition, the Kd on hKOR [4] worked out at 130 nM.
Turning to `COC(=O)[C@@H]1C[C@H](OC(=O)[C@@H]2Cc3ccccc3N2)C(=O)[C@H]2[C@@]1(C)CC[C@H]1C(=O)O[C@H](c3ccoc3)C[C@]21C` [Compound 14, (2S,4aR,6aR,7R,9S,10aS,10bR)-2-(furan-3-yl)-7-(methoxycarbonyl)-6a,10b-dimethyl-4,10-dioxododecahydro-2H-benzo[f]isochromen-9-yl (S)-indoline-2-carboxylate], at hKOR [1], the response was half-maximal at 361 nM (EC50) and the “Full or partial agonist (KOR)” value is 361 (216–602)^[d]. Moreover, the EC50 on hMOR [2] is more than 10000 nM. Besides, at hMOR [3], the affinity, expressed as Kd, was 77.9 nM. At hKOR [4], binding was put at a Kd of 32.1 nM and the “fold preference towards KOR (binding affinity, KOR vs MOR)” value was ~ 2 fold.
Consider `CN1CC[C@]23c4c5ccc(O)c4O[C@H]2[C@@H](O)C=C[C@H]3[C@H]1C5` [Morphine, reference compound], for which the “latency to tail withdrawal compared to vehicle” value in the series on male C57BL/6NHsd mice [6] is on record as “significantly increased the latency to tail withdrawal”. Also, the “latency to hind paw lick or flutter compared to vehicle” value in the series with male C57BL/6NHsd mice [7] was “significant increase in the latency to paw response”.
